Assay results published in patent publication US10233142B2, “Metabolites of (1R-trans)-N-[[2-(2,3-dihydro-4-benzofuranyl)cyclopropyl]methyl]propanamide” (Vanda Pharmaceuticals, Inc., priority 2012, dated 2019).

Experiment: 14C-radiolabeled Tasimelteon administered to healthy male subjects; HPLC radio-chromatography of plasma, urine and feces
Type: in vivo, human
Settings: for share of the radioactivity of the administered dose in urine: 0-72 h urine samples; for feces (0-120 h) (% dose) / plasma (% AUC) / urine (0-72 h) (% dose) / total excreta (% dose): healthy male subjects, 100 μCi/100 mg 14C-Tasimelteon; for plasma (% AUC): plasma 0.5-24 h; for total excreta (% dose): urine plus feces; for share of the total plasma radioactivity: plasma samples; for share of the radioactivity of the administered dose in feces: fecal samples
Protocol: ^14C-radiolabeled (1R-trans)-N-[[2-(2,3-dihydro-4-benzofuranyl)cyclopropyl]methyl]propanamide was administered to healthy male subjects at a dosage of 100 μCi/100 mg. Plasma, urine, and fecal samples were then collected from subjects at predetermined time intervals following administration (0.5 h, 1 h, 2 h, 8 h, and 24 h for plasma; 0-6 h, 6-12 h, 12-24 h, and 24-72 h for urine; and 0-24 h, 24-48 h, and 48-120 h for feces). Plasma and fecal samples were subjected to methanol extraction to remove proteins. All samples were centrifuged to remove solids prior to HPLC radio-chromatography. Radioactivity in each fraction was determined by Packard TopCount® NXT™ Microplate Scintillation and Luminescence Counter technology. Selected urine, plasma, and fecal extracts were analyzed by LC/MS, coupled with a radioactivity monitor.
The proportionate presence of (1R-trans)-N-[[2-(2,3-dihydro-4-benzofuranyl)cyclopropyl]methyl]propanamide and the M9 and M11 metabolites in plasma, urine, and feces of the subjects is shown below in Table 1.

| feces (0-120 h) (% dose) | plasma (% AUC) | urine (0-72 h) (% dose) | total excreta (% dose) | share of the total plasma radioactivity | share of the radioactivity of the administered dose in feces | Structure (SMILES) | share of the radioactivity of the administered dose in urine |
| --- | --- | --- | --- | --- | --- | --- | --- |
| not detected | 3.56 | not detected | not detected | approximately 3.5% |  | CCC(=O)NC[C@@H]1C[C@H]1c1cccc(O)c1CCO [M11] | Neither unchanged Tasimelteon nor metabolite M11 were found |
| 0.04 % dose | 8.22 | not detected | 0.04 % dose | approximately 8% | minor fecal metabolites | CCC(=O)NC[C@@H]1C[C@H]1c1cccc2c1CCO2 [Tasimelteon, (1R-trans)-N-[[2-(2,3-dihydro-4-benzofuranyl)cyclopropyl]methyl]propanamide] | Neither unchanged Tasimelteon nor metabolite M11 were found |
| 0.85 % dose | 19.79 | 29.69 % dose | 30.54 % dose | ~20% | minor fecal metabolites | CCC(=O)NC[C@@H]1C[C@H]1c1cccc(O)c1CC(=O)O [M9] | ~30% |
